The values that follow come from US12522616B2, “Thiazololactam compound as ERK inhibitor and use thereof” (D3 BIO (WUXI) CO., LTD., priority 2019, dated 2026).

One series deals with HT29 tumor cells. Kind of series: Assay of in vitro cell proliferation inhibition (CellTiterGlo). Type of series: cell-based. The settings on record: Homo sapiens, HT-29. The procedure:
Assay Example 2. Assay of In Vitro Cell Proliferation Inhibition
The ability of compounds to inhibit the proliferation of HT29 tumor cells was measured.
The assay compound was dissolved in 100% DMSO to prepare 10 mM stock solution.
• 1) UV light of a biological safety cabin was turned on, and 30 minutes were counted down; • 2) In a 37° C. water bath, RPMI1640 medium and trypsin were preheated; • 3) After completion of the UV irradiation, the biological safety cabin was opened. • The preheated medium, trypsin and phosphate buffered saline (PBS), etc. were wiped with alcohol and placed in the biological safety cabin; • 4) HT29 cells were removed from the incubator, and the old medium was removed in biological safety cabin. 10 ml of PBS was added. The mixture was shaken gently, and then PBS was removed; • 5) 1.5 ml of preheated 0.25% trypsin was added. The culture vessel was shaken horizontally so that the trypsin evenly covered the cells at the bottom, and placed in an incubator for 2 minutes; • 6) Cell digestion was stopped with complete medium, and the cell suspension was pipetted to homogeneity and counted; • 7) According to the result of cell counting, the density of cell suspension was adjusted to 1500 cells per well, and the cell suspension was seeded at 50 μl per well; • 8) The stock solution of compounds was serially diluted in DMSO solution, and compounds were added to cell plate using Tecan; • 9) The compound-added cell plate and CellTiterGlo were equilibrated at room temperature, and 25 microliters of CellTiterGlo was then added to each well. The cell plate was shaken for 1-2 minutes and then allowed to stand for 10 minutes. The signal value was then detected. The data were analyzed using XL-Fit, and the IC50 of each compound was calculated. 4.
A general note: In ATP-based viability assays light output follows the ATP content of the culture.

The nature of series [1]: In vivo DMPK assay in mouse. The settings on record: female BALB/c mice; for Oral DNAUC (AUCPO/Dose) / bioavailability / Cmax: 3 mg/kg orally; for clearance / Vd / bioavailability / half-life / Cmax: mouse, plasma; for clearance / Vd: iv; for clearance / Vd / bioavailability: 1 mg/kg intravenously; for clearance: read-out: Cl (clearance rate); for Vd: read-out: Vdss (distribution volume); for bioavailability / Cmax: po; for bioavailability: read-out: F % (oral bioavailability); for half-life: single administration, read-out: T1/2 (half-life) (converted); for Cmax: read-out: Cmax (maximum concentration). The text has this:
Assay Example 3. Assay of In Vivo DMPK
In vivo DMPK assay in mouse
Female BALB/c mice were used as assay animals to determine the blood concentration of compounds and evaluate the pharmacokinetic behavior after a single administration.
Eight healthy adult female BALB/c mice were selected, wherein 4 mice were in the intravenous injection group and 4 mice were in the oral group. The vehicle in the intravenous injection group was 5% DMSO+95% (20% HP-β-CD). The compound to be assayed was mixed with an appropriate amount of vehicle for intravenous injection, vortexed and sonicated to prepare a clear solution of 0.5 mg/mL. The clear solution was filtered by a microporous membrane, and then ready for use. The vehicle in the oral group was 5% DMSO+95% (20% HP-β-CD). The compound to be assayed was mixed with the vehicle, vortexed and sonicated to prepare a solution of 0.3 mg/mL. Mice were administered 1 mg/kg intravenously or 3 mg/kg orally, and then whole blood was collected for a certain period. Plasma was prepared. The drug concentration was analyzed by LC-MS/MS method, and the pharmacokinetic parameters were calculated by Phoenix WinNonlin software (Pharsight, USA).
Note: DMSO: dimethyl sulfoxide; HP-β-CD: hydroxypropyl-β-cyclodextrin.

For a further series, the target named is ERK2 kinase (Homo sapiens (Human), UniProt P28482). Kind of series: Assay of in vitro kinase activity (33P-ATP filter-binding, MBP substrate). Type of series: biochemical. The settings on record: remaining kinase activity vs DMSO control. As to the method:
Assay Example 1. Assay of In Vitro Kinase Activity
The ability of compounds to inhibit ERK2 kinase activity was measured.
20 mM Hepes (pH 7.5), 10 mM MgCl2, 1 mM ethylenebis(oxyethylenenitrilo)tetraacetic acid (EGTA), 0.02% Brij35, 0.02 mg/mL bovine serum albumin (BSA), 0.1 mM Na3VO4, 2 mM dithiothreitol (DTT), 1% DMSO.
The assay compound was dissolved in 100% DMSO to prepare a stock solution of specific concentration. The compound was serially diluted in DMSO solution using Integra Viaflo Assist smart pipette.
• 1) The substrate MBP was prepared in freshly prepared reaction buffer; • 2) ERK2 kinase was added to the above-mentioned MBP solution and mixed gently; • 3) The compound dissolved in 100% DMSO was added to the kinase reaction system using ultrasound technology (Echo550; nanoliter range), and the mixture was incubated at room temperature for 20 minutes; • 4)^33P-ATP (specific concentration of […]) was added to the reaction system, and the reaction was started at this time; • 5) The mixture was incubated at room temperature for 2 hours; • 6) The amount of radioactivity was detected by filter-binding method; • 7) ERK2 kinase activity was calculated as the ratio of the remaining kinase activity in the assay sample to the kinase activity of the control group (treated by DMSO). Curve was fitted using Prism (GraphPad software) and IC50 values were calculated. 5.

Series [2] relates to human non-small cell lung cancer H358 cells. Kind of series: In vivo efficacy in mouse H358 subcutaneous xenograft model. The settings on record: BALB/c nude mouse, 30 mg/kg PO QD. As to the method:
Animals were monitored daily for health and death. […] Animal deaths and side effects in each group were recorded based on the number of animals in each group. […] 5.

Sequence of ERK2 kinase (P28482 whole entry): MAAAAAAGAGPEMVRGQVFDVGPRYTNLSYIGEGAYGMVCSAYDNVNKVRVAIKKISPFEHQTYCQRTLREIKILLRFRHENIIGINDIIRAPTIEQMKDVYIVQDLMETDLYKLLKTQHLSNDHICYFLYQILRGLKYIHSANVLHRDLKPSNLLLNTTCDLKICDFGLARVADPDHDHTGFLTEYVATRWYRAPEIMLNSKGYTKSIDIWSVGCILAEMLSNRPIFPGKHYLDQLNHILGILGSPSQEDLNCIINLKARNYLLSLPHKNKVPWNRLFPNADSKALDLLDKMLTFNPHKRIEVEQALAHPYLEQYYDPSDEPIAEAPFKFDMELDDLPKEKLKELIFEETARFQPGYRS

A word on the IC50: it is the concentration that inhibits the measured activity by half. Higher therefore signals a need for much substance. The clearance is a measure of how efficiently the substance is removed, as volume per time. The bioavailability is the share of a dose that reaches the circulation, judged against a reference dose that is usually intravenous. In the series on HT29 tumor cells, `Cn1nccc1Nc1nccc(-c2nc3c(s2)C(C)(C)N(Cc2cccc(Cl)c2)C3=O)n1` [WX001] had an IC50 of 14 nM. For the same compound, in series [1], the “Oral DNAUC (AUCPO/Dose)” value stood at 2153 nM · h/mpk, the clearance was 14.3 mL/min/kg, the Vd was 1.1 L/kg and the bioavailability came to 86%. Besides, in series [1], the half-life was 0.9 h and the Cmax worked out at 3360 nM. The IC50 at ERK2 kinase is 0.24 nM.

`Cn1nccc1Nc1nccc(-c2nc3c(s2)C(C)(C)N(Cc2cccc(F)c2)C3=O)n1` [WX002]: the results for the 50% inhibitory concentration (IC50) with HT29 tumor cells and on ERK2 kinase were 24 nM and 0.35 nM, respectively.

For the compound `Cn1nccc1Nc1nccc(-c2nc3c(s2)C(C)(C)N(Cc2ccc(F)c(F)c2)C3=O)n1` [WX003], the figures for the IC50 with HT29 tumor cells and on ERK2 kinase were 27 nM and 0.37 nM, respectively.

With `CC1(C)c2sc(-c3ccnc(NC4CCOCC4)n3)nc2C(=O)N1Cc1cccc(F)c1` [WX004], the half-inhibitory concentration (IC50) came out at 35 nM in the series on HT29 tumor cells and 0.25 nM at ERK2 kinase.

For `Cc1cnc(Nc2ccnn2C)nc1-c1nc2c(s1)C(C)(C)N(Cc1cccc(Cl)c1)C2=O` [WX005], the half-inhibitory concentration (IC50) was found to be 8 nM with HT29 tumor cells and 0.05 nM at ERK2 kinase. The “Oral DNAUC (AUCPO/Dose)” value in series [1] was 468 nM · h/mpk. The Cmax in series [1] was found to be 1030 nM.

As for `Cc1cnc(Nc2ccnn2C)nc1-c1nc2c(s1)C(C)(C)N(Cc1cccc(F)c1)C2=O` [WX006], in series [2] (to the 28th day), the “body weight of assay animals” value is “did not decrease significantly” and the morbidity or death result was “no morbidity or death”. Moreover, in series [2] (H358 xenograft, 28th day), the “TGI (inhibition rate of tumor growth)” value was 94%. Besides, the IC50 in the series with HT29 tumor cells amounted to 7 nM. In addition, in series [1], the “Oral DNAUC (AUCPO/Dose)” value came to 530 nM · h/mpk, the clearance was determined as 23 mL/min/kg, the Vd was 1.7 L/kg and the bioavailability was determined as 34%. Also, in series [1], the half-life is 1 h and the Cmax amounted to 1040 nM. At ERK2 kinase, this compound displayed an IC50 of 0.3 nM.

In the case of `CC1(C)c2sc(-c3ccnc(NC4CCOCC4)n3)nc2C(=O)N1Cc1cccc(Cl)c1` [WX007], the IC50 in the series on HT29 tumor cells is 26 nM; on ERK2 kinase, 0.39 nM.

Regarding `Cc1cnc(Nc2ccnn2C(F)F)nc1-c1nc2c(s1)C(C)(C)N(Cc1cccc(F)c1)C2=O` [WX008], the values for the concentration for half-maximal inhibition (IC50) with HT29 tumor cells and on ERK2 kinase were 58 nM and 0.52 nM, respectively.

In the case of `[2H]C([2H])([2H])n1nccc1Nc1ncc(C)c(-c2nc3c(s2)C(C)(C)N(Cc2cccc(F)c2)C3=O)n1` [WX009], in the series on HT29 tumor cells, 6 nM corresponded to half-maximal inhibition (IC50). For the same compound, in series [1], the “Oral DNAUC (AUCPO/Dose)” value came to 820 nM · h/mpk, the clearance was 28 mL/min/kg, the Vd worked out at 1.7 L/kg and the bioavailability was found to be 67%. For the same compound, in series [1], the half-life is 1.7 h and the Cmax came out at 1170 nM. In addition, the IC50 on ERK2 kinase is 0.64 nM.

On to `Cc1cc(Nc2ncc(C)c(-c3nc4c(s3)C(C)(C)N(Cc3cccc(F)c3)C4=O)n2)n(C)n1` [WX010], for which the concentration for half-maximal inhibition (IC50) in the series on HT29 tumor cells was 27 nM; at ERK2 kinase, 0.14 nM.

`COCCn1nccc1Nc1ncc(C)c(-c2nc3c(s2)C(C)(C)N(Cc2cccc(F)c2)C3=O)n1` [WX011]: the 50% inhibitory concentration (IC50) amounted to 26 nM with HT29 tumor cells and 0.98 nM at ERK2 kinase.

As to `Cc1cnc(Nc2ccnn2C2CC2)nc1-c1nc2c(s1)C(C)(C)N(Cc1cccc(F)c1)C2=O` [WX012], the half-inhibitory concentration (IC50) in the series on HT29 tumor cells came to 37 nM; at ERK2 kinase it was 0.48 nM.

Regarding `COc1cc(Nc2ncc(C)c(-c3nc4c(s3)C(C)(C)N(Cc3cccc(F)c3)C4=O)n2)n(C)n1` [WX013], the figures for the IC50 with HT29 tumor cells and at ERK2 kinase were 18 nM and 0.19 nM, respectively.
